Drawing on the METLIN SMRT retention time set (Domingo-Almenara et al. 2019), this text covers RP-LC retention time for 32 molecules.

The nature of this data set: gradient 5% acetonitrile 3 min, to 50% in 2 min, to 85% in 15 min, held 3 min, 100 µL/min. To be noted: column: Zorbax Extend-C18 2.1 x 50 mm; eluents: water / acetonitrile, 0.1% formic acid. The gist of the method: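 Retention time was recorded from adduct peaks, which were picked computationally and each inspected manually. Pure standards ran in mixtures of ~100 molecules on HPLC coupled to a quadrupole time-of-flight mass spectrometer, in positive and negative ionization mode, through a Zorbax Extend-C18 column (2.1 × 50 mm, 1.8 μm) at 100 μL/min. Eluents were water and acetonitrile, each with 0.1% formic acid.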
For `Cc1cnc(C2CNC2)n1Cc1ccccc1`, the RP-LC retention time came out at 589 s.

The molecule `CCCn1c(CCNC(=O)c2ccc(C)cc2)nc2cccnc21` had an RP-LC retention time of 668 s.

Molecule `CCC(CC)C(=O)Nc1ccc2nc(N3CCN(CC)CC3)cc(C)c2c1` displayed an RP-LC retention time of 593 s.

`COc1ccc(-c2nc3cnccn3c2Nc2ccc(C(=O)NC3CCCCC3)cc2)cc1OC` yielded an RP-LC retention time of 755 s.

`Cc1ccccc1Nc1c(-c2cc(Br)ccc2F)nc2cccc(C)n12` had an RP-LC retention time of 814 s.

The molecule `CN1c2ccc(Cl)cc2C(=O)NC12CCN(C(=O)Nc1ccccc1)CC2` yielded an RP-LC retention time of 800 s.

Turning to `CCc1ccc(C(=O)Nc2nnc(SCc3nnc(-c4ccccc4C)o3)s2)cc1`, the RP-LC retention time is 1080 s.

`O=C(NC1CCCCC1)C1CCN(c2cnc(N3CCCC3)nc2)CC1` gave an RP-LC retention time of 649 s.

In turn, `O=C(c1ccc(-c2cccs2)nc1)N1CCN(c2ccccc2)CC1` had an RP-LC retention time of 935 s.

Take `CCn1c(=O)c2ccccc2n(Cc2nc(-c3ccc(OC)c(OC)c3)no2)c1=O`: the RP-LC retention time worked out at 920 s.

Molecule `Cc1c(-c2noc(C(=O)NCCCN3CCCC(C)C3)n2)oc2ccccc12` (configuration not stated) came in with an RP-LC retention time of 722 s.

Molecule `CC(=O)N1CCc2c([nH]c3ccccc23)C12C(=O)N(CCC(C)C)c1ccc(Br)cc12` (configuration not stated) yielded an RP-LC retention time of 1040 s.

Consider `COc1cccc(N2CCN(c3ccnc(SCC(=O)Nc4cc(F)ccc4Cl)n3)CC2)c1`, for which the RP-LC retention time was found to be 836 s.

`CCCN1CCN(C(=O)C2CCN(S(=O)(=O)c3ccc4c(c3)sc(=O)n4C(C)C)CC2)CC1` registered an RP-LC retention time of 665 s.

`O=C(Nc1nc2c(s1)CN(Cc1ccccc1)CC2)C1CCCN1S(=O)(=O)c1cccs1` (configuration not stated) came in with an RP-LC retention time of 654 s.

On to `O=C(Nc1c(F)cccc1F)N1CC(c2nc(Cc3ccccc3)no2)C1`, for which the RP-LC retention time was determined as 753 s.

The molecule `CN1C(=O)c2ccccc2Oc2ccc(C(=O)NC3CCCC3)cc21` returned an RP-LC retention time of 725 s.

As for `CC1CCC2(CC1)N=C(c1ccccc1)C(=O)N2CC(=O)Nc1ccc2c(c1)OCCO2` (configuration not stated), the RP-LC retention time amounted to 1120 s.

`Cc1cc(C)c2nc(C)cc(C(=O)NCc3ccco3)c2c1` had an RP-LC retention time of 698 s.

For `CC1=C(c2ccccc2)S(=O)(=O)N=C1N1CCCN(C(=O)Nc2cccc(F)c2)CC1`, the RP-LC retention time was 849 s.

`CC(C)c1ccc(-n2nc(N3CCN(C(=O)Cc4cccs4)CC3)ccc2=O)cc1` registered an RP-LC retention time of 898 s.

In the case of `O=S(=O)(Nc1cc(F)cc(F)c1)c1ccc(-c2nnc(C3CC3)o2)o1`, the RP-LC retention time turned out to be 878 s.

`COc1ccc(NC(=O)C2CCCN2S(=O)(=O)c2ccc3c(c2)N(C(C)=O)CCO3)cc1` (configuration not stated): the RP-LC retention time turned out to be 762 s.

`CC(C)CCNc1ccc(-c2nc(-c3ccc(F)cc3)no2)cn1` gave an RP-LC retention time of 1230 s.

`CC1CCCCN1CCNC(=O)c1cc(S(=O)(=O)N2CCCC2)ccc1Cl` (configuration not stated) gave an RP-LC retention time of 617 s.

In the case of `O=C(C1CCN(c2cc(N3CCCCC3)ncn2)CC1)N1CCN(c2ccccc2)CC1`, the RP-LC retention time worked out at 724 s.

As for `Cc1ccc(NS(=O)(=O)c2cc3n(c2)CCN(C(C)C)C3=O)cc1C`, the RP-LC retention time is 794 s.

`CC(C)c1nc2ccc(CCC(=O)NC(C)c3ccccc3)cc2[nH]1` (configuration not stated) had an RP-LC retention time of 610 s.

In turn, `COc1ccc(N2CCN(C(=O)c3c(C)sc4ccn(C)c(=O)c34)CC2)cc1` returned an RP-LC retention time of 661 s.

For the molecule `COc1ccccc1CNC(=O)CSc1cc(N2CCN(c3ccccc3OC)CC2)ncn1`, the RP-LC retention time is 888 s.

Take `COc1cc(Br)cc2c1OC1(C)CC2NC(=O)N1c1cccc(C(=O)O)c1` (configuration not stated): the RP-LC retention time was determined as 672 s.

In the case of `O=C(C1COc2ccccc2O1)N1CC(n2ccnc2)C1` (configuration not stated), the RP-LC retention time was 594 s.
